Earlier results in patent US10226042B2, “Synergistic pre-emergent and post-emergent weed control compositions and methods of use thereof” (BAYER INTELLECTUAL PROPERTY GMBH, priority 2009, dated 2019).

Conditions: stated in words, no test described

Compound | water solubility
O=C(O)COc1ccc(Cl)cc1Cl [2,4-D] | water soluble
COc1c(Cl)ccc(Cl)c1C(=O)O [dicamba] | water soluble
